The values that follow are results of earlier work, collected in patent US20100255118A1, “ORAL ZINC MEDICANTS USEFUL FOR SAFELY LOWERING FREE COPPER ABSORPTION AND FREE COPPER LEVELS” (priority 2007, published 2010).

For series [1] the following is noted: infant rhesus monkeys.
The conditions of series [2]: adequate intake by mothers prior to pregnancy.
The conditions of series [3]: Wilson's patients.
For series [4] the following is noted: humans, oral dose of Cu64 as copper acetate.

`[67Cu]` [Cu^67]: in series [1], the copper absorption was 50-70%. With `Nc1nc2ncc(CNc3ccc(C(=O)N[C@@H](CCC(=O)O)C(=O)O)cc3)nc2c(=O)[nH]1` [folic acid], the “reduction of the incidence of NTDs” value in series [2] is “up to 70%”. Take `[Zn]` [zinc]: the “time to achieve intestinal metallothionein induction and a negative copper balance” value in series [3] was “approximately two”. The “copper balance induced (average)” value in series [3] (at the two week point) is given as −0.35 mg daily. Turning to copper acetate, in series [4], the “oral dose absorbed from the gastrointestinal tract” value is reported as “about 65%”. The “oral dose absorbed from the gastrointestinal tract (range)” value in series [4] (range) is given as 15-97%.
